Publication PMC7318006, “Anidulafungin and Micafungin Concentrations in Cerebrospinal Fluid and in Cerebral Cortex” (Antimicrobial Agents and Chemotherapy, 2020)
Where two headings read alike, the source gives them in different places. Starred links: 1 amine or outer side, 2 acyl side, 3 side chain; linkers in the order of their positions; H or OH if unused. Positions of bridges follow the written chain, without caps; N, C: chain ends. Non-standard residues stand in square brackets, D forms with d. Residues, ends and D or L forms follow the SMILES beside them. *: point of attachment. hTyr(3S-OH,4S-OH,3'-OSO3H) = N[C@H](C(=O)O)[C@H](O)[C@@H](O)c1ccc(O)c(OS(=O)(=O)O)c1; pTerphenylCO(4''-OnC5H11) = CCCCCOc1ccc(-c2ccc(-c3ccc(C(=O)*)cc3)cc2)cc1; Orn(4R-OH,5R-OH) = O=C([C@H](C[C@@H](O)[C@@H](O)N[*:3])N[*:1])[*:2]; hTyr(3S-OH,4S-OH) = N[C@H](C(=O)O)[C@H](O)[C@@H](O)c1ccc(O)cc1; Pro(3S-OH,4S-Me) = C[C@H]1CN[C@H](C(=O)O)[C@H]1O; X1 = CCCCCOc1ccc(-c2cc(-c3ccc(C(=O)*)cc3)no2)cc1; Gln(3R-OH) = NC(=O)C[C@@H](O)[C@H](N)C(=O)O; Hyp = O=C(O)[C@@H]1C[C@@H](O)CN1

How the values were obtained:
[1] = cited from earlier work
Procedure: In brain specimens, we cannot rule out minor agonal or postmortem changes of anidulafungin and micafungin concentrations, although anidulafungin and micafungin were stable in the brains of deceased patients for at least 96 h. Brain specimens consist of various compartments, e.g., different cells, extracellular matrix, and blood vessels. Anidulafungin and micafungin were not quantified on a cellular level or in different brain areas. Echinocandin extraction from human brain might yield slightly lower recovery than extraction from external standards. In rats, [^3H]caspofungin brain concentration ...

clinical = details: human, in vivo, iv
[2] = cumulative dose 200 mg; for Cmax (peak concentration) in CSF: steady state not reached
[3] = Concentration in arterial plasma of critically ill adults drawn simultaneously with CSF, HPLC-UV; format: in vivo, human; details: for AUC(0-t) / half-life / Cmax / Tmax: intravenous; for AUC(0-t): read-out: AUC0–24 in plasma; for half-life: read-out: t1/2 (half-life) in plasma (converted); for Cmax: read-out: Cmax (peak concentration) in plasma; for Tmax: read-out: Tmax (time to Cmax) in plasma
Procedure: CSF was taken during diagnostic lumbar puncture (LP) or via external ventricular drain (EVD) from critically ill adults treated with anidulafungin or micafungin. Simultaneously, we took 2-ml arterial blood samples. CSF and plasma were stored at –80°C.
Anidulafungin and micafungin concentrations were quantified by high-performance liquid chromatography and UV detection (HPLC-UV) as described previously ([5]). Noncompartmental pharmacokinetics was calculated with Kinetica 2000 (InnaPhase Corporation, Champs-sur-Marne, France). The area under the concentration-time curve from 0 to 24 h (AUC0–24) was computed with the log-linear method when the concentration in a trapezoid decreased or with the trapezoidal method when the concentration increased.

[4] = Concentration in autopsy samples of cerebral cortex of deceased patients, HPLC-UV; format: in vivo, human
Procedure: The cerebral cortex of deceased patients who had received anidulafungin or micafungin within their last 30 days of life was sampled during autopsy, which is routinely performed for quality assurance in Austrian hospitals. Anidulafungin and micafungin were extracted from 0.2 g of tissue by addition of 250 μl of acetonitrile and 250 μl of methanol (Sigma-Aldrich, Vienna, Austria), homogenization with a Precellys homogenizer (Bertin Instruments, Montigny-le-Bretonneux, France) at 4,500 rpm (twice for 25 s, 2-s break), and centrifugation for 5 min at 8°C and 4,665 × g. For calibration, we used porcine brain samples spiked with anidulafungin or micafungin and homogenized and proceeded in the same manner. Both echinocandins were quantified by HPLC-UV at 306 nm ([5]). The lower limit of quantification was 0.05 μg/g for anidulafungin and 0.10 μg/g for micafungin. The extraction recovery from brain was ∼40% and ∼60% for anidulafungin and micafungin, respectively.

[5] = Stability in brain tissue at 4°C; format: in vitro ADME, human; details: brain tissue at 4°C (storage temperature of the corpses)
Procedure: In brain specimens, we cannot rule out minor agonal or postmortem changes of anidulafungin and micafungin concentrations, although anidulafungin and micafungin were stable in the brains of deceased patients for at least 96 h. Brain specimens consist of various compartments, e.g., different cells, extracellular matrix, and blood vessels. Anidulafungin and micafungin were not quantified on a cellular level or in different brain areas. Echinocandin extraction from human brain might yield slightly lower recovery than extraction from external standards. In rats, [^3H]caspofungin brain concentrations were ≤0.16 μg eq/g ([17]). In rabbits, micafungin brain concentrations were <0.19 μg/g, and those of anidulafungin were <4.0 μg/g ([18], [19]). In a biopsy sample of a brain abscess, a micafungin concentration of 0.26 μg/g was measured ([20]).

Candida strains = details: pharmacodynamic target, not achieved in CSF of patients 2 and 5; cited from earlier work
Procedure: In some of the CSF and brain specimens, measured anidulafungin and micafungin concentrations were below the MICs reported for relevant Candida species (i.e., 0.008 to 4.0 μg/ml) ([6]). […] However, the relevance of in vitro MIC values for antifungal activity of echinocandins in CSF and in CNS remains to be clarified. In CSF, protein binding of anidulafungin and micafungin is unk ...

[6] = cited from earlier work; remark: listed apart in the source
[7] = patient 2, external ventricular drainage, treatment day 1, noncompartmental
[8] = human, plasma, patient 2, cumulative dose 200 mg, treatment day 1, noncompartmental
[9] = patient 5, external ventricular drainage, treatment day 2, noncompartmental
[10] = human, plasma, patient 5, cumulative dose 200 mg, treatment day 2, noncompartmental

CCCCCOc1ccc(-c2ccc(-c3ccc(C(=O)N[C@H]4C[C@@H](O)[C@@H](O)NC(=O)[C@@H]5[C@@H](O)[C@@H](C)CN5C(=O)[C@H]([C@@H](C)O)NC(=O)[C@H]([C@H](O)[C@@H](O)c5ccc(O)cc5)NC(=O)[C@@H]5C[C@@H](O)CN5C(=O)[C@H]([C@@H](C)O)NC4=O)cc3)cc2)cc1 [anidulafungin] ({pTerphenylCO(4''-OnC5H11)}-[Orn(4R-OH,5R-OH)]T[Hyp][hTyr(3S-OH,4S-OH)]T[Pro(3S-OH,4S-Me)]; lactam 1-C)
Brain concentrations ([1]; rabbits): < 4.0 µg/g
Kp (clinical; 200 mg): 0.07
Kp at 3 h (clinical; 300 mg): 0.01
Kp at 0.5 h (clinical; 2500 mg): < 0.002
Tmax (time to Cmax) in CSF ([2]; patient 2, external ventricular drainage, treatment day 1): 1 h
AUC0–24 in CSF [2, 7]: 2090 ng·h/mL
t1/2 (half-life) in CSF [2, 7]: 7.90 h
Cmax (peak concentration) in CSF ([2]; patient 2, external ventricular drainage, treatment day 1, sampling before and 1, 4, 8, 12, 18, 24 h after start of infusion): 660 ng/mL
Cmin (trough concentration) in CSF ([2]; patient 2, external ventricular drainage, treatment day 1, steady state not reached): 30 ng/mL
AUC(0-t) [3, 8]: 29400 ng·h/mL
half-life [3, 8]: 14.7 h
Cmax ([3]; human, plasma, patient 2, cumulative dose 200 mg, treatment day 1, sampling before and 1, 4, 8, 12, 18, 24 h after start of infusion, steady state not reached): 2720 ng/mL
Tmax ([3]; human, plasma, patient 2, cumulative dose 200 mg, treatment day 1): 1 h
level at 0.5 h ([3]; human, plasma, iv, 2500 mg, patient 3, arterial blood simultaneous with lumbar puncture, cumulative dose 2,500 mg, treatment day 24, 0.5 h from start of infusion, steady state, read-out: Plasma concn): 5070 ng/mL
level at 3 h ([3]; human, plasma, iv, patient 1, arterial blood simultaneous with lumbar puncture, cumulative dose 300 mg, treatment day 3, 3.0 h from start of infusion, steady state not reached, read-out: Plasma concn): 3830 ng/mL
Cmin (trough concentration) in plasma ([3]; patient 2, cumulative dose 200 mg, treatment day 1, steady state not reached): 770 ng/mL
tissue level at time at 29 h ([4]; human, cerebral cortex, 1200 mg, patient 10, cumulative dose 1,200 mg, treatment 11 days, 29 h between last administration and death, 21 h between death and sampling, LLOQ 0.05 μg/g, read-out: Concn in cerebral cortex (autopsy)): 1580 ng/g
tissue level at time at 12 h ([4]; human, cerebral cortex, 1500 mg, patient 9, cumulative dose 1,500 mg, treatment 14 days, 12 h between last administration and death, 15 h between death and sampling, LLOQ 0.05 μg/g, read-out: Concn in cerebral cortex (autopsy)): 2340 ng/g
tissue level at time at 313 h ([4]; human, cerebral cortex, 1800 mg, patient 8, cumulative dose 1,800 mg, treatment 17 days, 313 h between last administration and death, 25 h between death and sampling, LLOQ 0.05 μg/g, read-out: Concn in cerebral cortex (autopsy)): 280 ng/g
tissue level at time at 32 h ([4]; human, cerebral cortex, patient 7, cumulative dose 700 mg, treatment 6 days, 32 h between last administration and death, 14 h between death and sampling, LLOQ 0.05 μg/g, read-out: Concn in cerebral cortex (autopsy)): 210 ng/g
Time stable in brain tissue [5]: at least 96 h
Target AUC0–24/MIC ratio suggested (Candida strains): 2,782

CCCCCOc1ccc(-c2cc(-c3ccc(C(=O)N[C@H]4C[C@@H](O)[C@@H](O)NC(=O)[C@@H]5[C@@H](O)[C@@H](C)CN5C(=O)[C@H]([C@H](O)CC(N)=O)NC(=O)[C@H]([C@H](O)[C@@H](O)c5ccc(O)c(OS(=O)(=O)O)c5)NC(=O)[C@@H]5C[C@@H](O)CN5C(=O)[C@H]([C@@H](C)O)NC4=O)cc3)no2)cc1 [micafungin] (X1-[Orn(4R-OH,5R-OH)]T[Hyp][hTyr(3S-OH,4S-OH,3'-OSO3H)][Gln(3R-OH)][Pro(3S-OH,4S-Me)]; lactam 1-C)
Concentration in biopsy sample of a brain abscess [1]: 0.26 µg/g
Brain concentrations ([1]; rabbits): < 0.19 µg/g
Kp (clinical; 200 mg): 0.02
Kp at 16 h (clinical; 200 mg): 0.08
level at 16 h (clinical; 200 mg): 90 ng/mL
Kp at 2.5 h (clinical; 1300 mg): 0.03
CSF concentration ([6]; cerebral aspergillosis, 2-fold maximum dose, 300 mg/day): < 0.02 µg/mL
Tmax (time to Cmax) in CSF ([2]; patient 5, external ventricular drainage, treatment day 2): 4 h
Cmin (trough concentration) in CSF ([2]; patient 5, external ventricular drainage, treatment day 2, LLOQ 0.01 μg/ml): <10 ng/mL
AUC0–24 in CSF [2, 9]: 2010 ng·h/mL
t1/2 (half-life) in CSF [2, 9]: 13.80 h
Cmax (peak concentration) in CSF ([2]; patient 5, external ventricular drainage, treatment day 2, sampling before and 1, 4, 8, 12, 18, 24 h after start of infusion): 160 ng/mL
AUC(0-t) [3, 10]: 113000 ng·h/mL
half-life [3, 10]: 12.9 h
Cmax ([3]; human, plasma, patient 5, cumulative dose 200 mg, treatment day 2, sampling before and 1, 4, 8, 12, 18, 24 h after start of infusion, steady state not reached): 8700 ng/mL
Tmax ([3]; human, plasma, patient 5, cumulative dose 200 mg, treatment day 2): 1 h
level at 2.5 h ([3]; human, plasma, iv, 1300 mg, patient 6, arterial blood simultaneous with lumbar puncture, cumulative dose 1,300 mg, treatment day 13, 2.5 h from start of infusion, steady state, read-out: Plasma concn): 3510 ng/mL
level at 16 h ([3]; human, plasma, iv, patient 4, arterial blood simultaneous with lumbar puncture, cumulative dose 200 mg, treatment day 2, 16.0 h from start of infusion, steady state not reached, read-out: Plasma concn): 1210 ng/mL
Cmin (trough concentration) in plasma ([3]; patient 5, cumulative dose 200 mg, treatment day 2, steady state not reached): 2160 ng/mL
Time after treatment at which the drug was still measurable in cerebral cortex ([4]; autopsy samples of deceased patients): 10 days
tissue level at time at 712 h ([4]; human, cerebral cortex, 1100 mg, patient 11, cumulative dose 1,100 mg, treatment 19 days, 712 h between last administration and death, 58 h between death and sampling, LLOQ 0.10 μg/g, read-out: Concn in cerebral cortex (autopsy)): < 100 ng/g
tissue level at time at 235 h ([4]; human, cerebral cortex, 4000 mg, patient 16, cumulative dose 4,000 mg, treatment 39 days, 235 h between last administration and death, 29 h between death and sampling, LLOQ 0.10 μg/g, read-out: Concn in cerebral cortex (autopsy)): 190 ng/g
tissue level at time at 111 h ([4]; human, cerebral cortex, intravenous, 1800 mg, patient 13, cumulative dose 1,800 mg, treatment 18 days, 111 h between last administration and death, 38 h between death and sampling, LLOQ 0.10 μg/g, read-out: Concn in cerebral cortex (autopsy)): 180 ng/g
tissue level at time at 230 h ([4]; human, cerebral cortex, intravenous, 5300 mg, patient 12, cumulative dose 5,300 mg, treatment 28 days, 230 h between last administration and death, 85 h between death and sampling, LLOQ 0.10 μg/g, read-out: Concn in cerebral cortex (autopsy)): 1520 ng/g
tissue level at time at 99 h ([4]; human, cerebral cortex, patient 14, cumulative dose 500 mg, treatment 4 days, 25 h between last administration and death, 74 h between death and sampling, LLOQ 0.10 μg/g, read-out: Concn in cerebral cortex (autopsy)): 2880 ng/g
tissue level at time at 324 h ([4]; human, cerebral cortex, patient 15, cumulative dose 300 mg, treatment 3 days, 324 h between last administration and death, 80 h between death and sampling, LLOQ 0.10 μg/g, read-out: Concn in cerebral cortex (autopsy)): < 100 ng/g
Time stable in brain tissue [5]: at least 96 h
Target AUC0–24/MIC ratio suggested (Candida strains): 5,299

Caspofungin
Detection in CSF ([6]; human, in vivo): undetectable
Detection in CSF ([6]; in 9 of 11 CSF samples from children with hematological malignancies): undetectable

[^3H]caspofungin
Brain concentrations ([1]; rats): ≤ 0.16 μg eq/g
